Columns and labels:
[1] = test system: Phelipanche aegyptiaca seeds; assay: Germination-inducing activity on parasitic seeds; assay type: in vivo; details: for Fold lower potency than rac-GR24 (germination): compared with rac-GR24
Description: Seeds of Phelipanche aegyptiaca were collected from field-grown tomato in the West Galilee region of Israel. The seeds were stored in glass vials in the dark at room temperature until their use in germination tests. For the preparation of test solutions, the compound to be tested was weighed out very accurately, dissolved in acetone at 10^–2 M and then diluted with sterile distilled water to the desired concentrations. All solutions were prepared just before use. Seeds were surface-sterilized and preconditioned as described by [Bhattacharya et al. (2009)]. Briefly, after exposure for 5 min to 50% (v/v) aqueous solutions of commercial bleach (2% hypochlorite), seeds were rinsed with sterile distilled water. For preconditioning, seeds were placed on glass fibre filter discs using a sterile toothpick (approximately 50 seeds per disc); the glass fibre discs were placed on two filter paper discs, wetted with sterile distilled water, and incubated at 25 °C in the dark for 6 d. The preconditioned seeds were then allowed to dry completely in a laminar flow cabinet, after which they were treated with each compound at five different concentrations: 10^–5 M, 10^–6 M, 10^–7 M, 10^–8 M, and 10^–9 M. Their germination rate was evaluated under a stereomicroscope 7 d after the beginning of the treatment. For each concentration, at least 250 seeds were scored; synthetic SL rac-GR24 was included as a positive control across the same range of concentrations, while a solution of 0.001% acetone in sterile distilled water was included as a negative control. Seeds were scored as germinated if the radicle protruded through the seed coat 1 week after treatment. Germination values were normalized to those of rac-GR24 at 10^–7 M.
Fig. 3. Germination-inducing activity on Phelipanche aegyptiaca seeds of rac-1–9 and of strigol, ST23b, EGO10, and EDOT at different concentrations, compared to rac-GR24 0.1 μM as a positive control and to acetone as a negative control. […] The x-axis indicates the range of concentrations. Data are means (±SD) of n>250 seeds. Confidence intervals at 95% are used to express errors of the means. The data for rac-1–9 are indicated by ‘D-lactams’.

[2] = target: T1, AtD14 fused to firefly luciferase (D14::LUC) (Arabidopsis thaliana, UniProt Q9SQR3); assay: Luminometer (luciferase) assay: D14::LUC degradation in transgenic Arabidopsis seedlings; assay type: in vivo; details: for D14 degradation in the luciferase assay: 0.01–100 μM range, racemic mixtures
T1 construct: a pDONOR207 carrying the D14 promoter fused to the D14 CDS; expressed in transfected cells
T1 sequence (Q9SQR3 1-267): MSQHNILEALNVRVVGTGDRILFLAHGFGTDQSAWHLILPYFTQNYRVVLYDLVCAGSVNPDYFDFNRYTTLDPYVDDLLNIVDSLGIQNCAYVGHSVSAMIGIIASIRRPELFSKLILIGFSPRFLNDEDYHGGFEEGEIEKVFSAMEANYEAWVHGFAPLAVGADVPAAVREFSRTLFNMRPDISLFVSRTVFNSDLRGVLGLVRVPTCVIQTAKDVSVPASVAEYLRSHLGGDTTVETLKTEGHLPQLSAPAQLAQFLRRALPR
Description: A binary D14p::D14::LUC vector was obtained by LR-recombination (Invitrogen) of a pDONOR207 carrying the D14 promoter fused to the D14 CDS ([Chevalier et al., 2014]) in pGWB435 ([Nakagawa et al., 2007]). Transgenic D14::D14::LUC Arabidopsis plants were generated by agroinfiltration of Col-0 plants using the floral dip method ([Clough and Bent, 1998]). Seeds were surface-sterilized with an 8% aqueous solution of commercial bleach in distilled water for 5 min and rinsed five times with sterile distilled water. Sterile seeds were plated on MS medium (pH 5.8) ([Murashige and Skoog, 1962]) without sucrose solidified with 1.2% Agar, and kept at 4 °C for 3 d (stratification). Seeds were then incubated for 7 d in a growth chamber at 25 °C and a photoperiod of 16 h light/8 h dark. SL analogues and mimics (Figs 1, 2) were accurately weighed and dissolved in acetone at 10^–2 M. Five different concentrations (10^–4 M, 10^–5 M, 10^–6 M, 10^–7 M, 10^–8 M) were prepared by 1:10 serial dilutions in liquid MS medium, together with blank controls containing corresponding water and acetone volumes in the medium. D-Luciferin (potassium salt) stock was prepared at 25 mg ml^–1 in DMSO, aliquoted and stored at –80 °C until use; all other solutions were prepared just before the assay. Using tweezers, 7-d-old Arabidopsis seedlings were placed in a 96-well microtiter plate with their cotyledons facing up (one seedling per well, in 170 µl of liquid MS medium), and 15 µl of luciferin (0.125 mg ml^–1, diluted 1:200 in MS from stock) was added to each well, corresponding to 1.875 µg. The plate was covered with a transparent film with a hole poked above each well to allow for gas exchange. Measurements were taken every 15 min in a multimode reader (LB942 Tristar2 S, Berthold Technologies) for the following 24 h; the signal was allowed to stabilize for 2–3 h in the light before treatments were started by adding 15 µl per well of the different SLs in MS medium, thus reaching a final volume in each well of 200 µl and 9.4 µg ml^– of luciferin. Appropriate blank controls were added as well. Each treatment was applied to a minimum of 16 wells (seedlings), each of which was measured individually over time. The percentage efficacy of each compound molecule was calculated 6 h after treatment as a function of the decrease in D14::LUC-emitted luminescence with respect to (+)-GR24 1 µM (i.e. GR24^5DS), assuming that the latter, minus the drift of the corresponding blank control, had 100% efficacy. For calibration purposes, SL analogues that had already been characterized, namely (±)-ST23b, (±)-EGO10, and (±)-EDOT ([Prandi et al., 2011]), were tested across the same concentration range, along with (±)-strigol (Chiralix, NL). The half maximal-effective concentration (EC50) for (+)-GR24 was calculated by linear regression fitting of the data (n=5, with at least three individual seedlings and values being pooled for each replicate) at the different concentrations, minus the values for acetone-treated samples (negative controls) and normalized in relation to (+)-GR24 0.01 μM, which was set to 0%. Confidence intervals at 95% were used to express errors of the means.
D14 is a target for proteasome-dependent destruction upon interaction with its ligand(s), which explains why fluorescence of D14::GFP fusion proteins is quenched upon SL treatment in transgenic Arabidopsis ([Chevalier et al., 2014]). We exploited this molecular network to implement a quantitative activity assay that inversely correlated luminescence to perception of SL-related molecules in transgenic Arabidopsis expressing D14::LUC under the control of the D14 endogenous promoter. […] We then used the assay to test various SLs in the same range, namely strigol as an example of natural SLs; ST23b, EGO10, and EDOT (Fig. 1, all used as rac mixtures) as examples of active SL analogues; and the new set of SL-D-lactams rac-1–9 (Fig. 2).
Fig. 4. Luciferase assay. […]

| SMILES | Germination efficiency at 1 μM ([1]; 1 μM) | Fold lower potency than rac-GR24 (germination) [1] | Concentration at which some germination activity could still be detected ([1]; tested 10^-9 to 10^-5 M) [µM] | D14 degradation in the luciferase assay [2] | Germination activity at 10 μM ([1]; 10 μM) | Activity in the luciferase assay at 10 μM ([2]; 10 μM) | Activity in the luciferase assay at 100 μM ([2]; 100 μM) | Concentration at which high germination activity was shown ([1]; high activity only at this concentration, germination normalized to rac-GR24 0.1 μM) [µM] |
| --- | --- | --- | --- | --- | --- | --- | --- | --- |
| CC1=C[C@H](O/C=C2/C(=O)O[C@H]3c4ccccc4C[C@@H]23)NC1=O (racemic) [rac-4] | efficiency comparable to GR24 | ~ 10 fold | 1 | weak activity |  |  |  |  |
| CC1=CC(C2Cc3c(n(C)c4ccccc34)C2=O)NC1=O (racemic) [rac-9] |  |  |  | substantially inactive | inactive | inactive | partial agonist |  |
| CC1=C[C@H](O/C=C2/C(=O)O[C@@H]3c4ccccc4C[C@H]23)NC1=O (racemic) [rac-3] |  | ~ 100 fold |  | almost inactive |  |  |  | 10 |
